The source of these data is article PMC10800876, “Evaluation of proline-rich antimicrobial peptides as potential lead structures for novel antimycotics against Cryptococcus neoformans” (Frontiers in Microbiology, 2024).

Values after ≈ are worked out from the molar mass of the structure shown. Read-outs that look alike come from different tables or passages of the source. Starred links: 1 amine or outer side, 2 acyl side, 3 side chain; linkers in the order of their positions; H or OH if unused. Non-standard residues stand in square brackets, D forms with d. Residues, ends and D or L forms follow the SMILES beside them. *: point of attachment. 5FAM = O=C1OC2(c3ccc(O)cc3Oc3cc(O)ccc32)c2ccc(C(=O)*)cc21; δOrn(α-TMG) = CN(C)C(=N[C@@H](CCCN[*:1])C(=O)[*:2])N(C)C; Ac6c = NC1(C(=O)O)CCCCC1; Orn = NCCC[C@H](N)C(=O)O

In the experiment the test system is C. neoformans 1841 (serotype D). To be noted: for activity of Cf-labeled peptide relative to the corresponding unlabeled peptide: C. neoformans 1841.
Where [1] appears, read: C. neoformans 1841, read after 24 h, mean of three replicates (n = 3).
[2] abbreviates: C. neoformans 1841, read after 48 h, mean of three replicates (n = 3).

`CC[C@H](C)[C@H](NC(=O)[C@H](Cc1ccc(O)cc1)NC(=O)[C@@H](NC(=O)[C@@H]1CCCN1C(=O)[C@H](CCCNC(=N)N)NC(=O)[C@H](CC(N)=O)NC(=O)[C@H](CC(N)=O)NC(=O)[C@H](CCCNC(=O)c1ccc2c(c1)C(=O)OC21c2ccc(O)cc2Oc2cc(O)ccc21)N=C(N(C)C)N(C)C)C(C)C)C(=O)N1CCC[C@H]1C(=O)N[C@@H](CCCNC(=N)N)C(=O)N1CCC[C@H]1C(=O)N[C@@H](CCCNC(=N)N)C(=O)N1CCC[C@H]1C(=O)N1CCC[C@H]1C(=O)N[C@@H](Cc1c[nH]cn1)C(=O)N1CCC[C@H]1C(=O)N[C@@H](CCCNC(=N)N)C(=O)N[C@@H](CC(C)C)C(N)=O` [Cf-Api88] (5FAM-[δOrn(α-TMG)]NNRPVYIPRPRPPHPRL-NH2): the “activity of Cf-labeled peptide relative to the corresponding unlabeled peptide” value was “slightly less active”. For the same compound, the “MIC (mg/L) 24 h, Cf-labeled peptides” value (1841 (serotype D, 24 h)) is on record as 32 mg/L (≈ 12.1 µM). In addition, for the setting “1841 (serotype D, 48 h)”, the “MIC (after 48 h)” value was 7.0 µM (≈ 18.5 µg/mL) and the “MIC (mg/L) 48 h, Cf-labeled peptides” value was in the range of 32 to 64 mg/L.

In the case of `CC[C@H](C)[C@H](NC(=O)[C@H](Cc1ccc(O)cc1)NC(=O)[C@@H](NC(=O)[C@@H]1CCCN1C(=O)[C@H](CCCNC(=N)N)NC(=O)[C@H](CC(N)=O)NC(=O)[C@H](CC(N)=O)NC(=O)[C@H](CCCNC(=O)c1ccc2c(c1)C(=O)OC21c2ccc(O)cc2Oc2cc(O)ccc21)N=C(N(C)C)N(C)C)C(C)C)C(=O)N1CCC[C@H]1C(=O)N[C@@H](CCCNC(=N)N)C(=O)N1CCC[C@H]1C(=O)N[C@@H](CCCNC(=N)N)C(=O)N1CCC[C@H]1C(=O)N1CCC[C@H]1C(=O)N[C@@H](Cc1c[nH]cn1)C(=O)N1CCC[C@H]1C(=O)N[C@@H](CCCNC(=N)N)C(=O)N[C@@H](CC(C)C)C(=O)O` [Cf-Api137] (5FAM-[δOrn(α-TMG)]NNRPVYIPRPRPPHPRL-OH), the “activity of Cf-labeled peptide relative to the corresponding unlabeled peptide” value was “slightly less active”. Moreover, the “MIC (mg/L) 24 h, Cf-labeled peptides” value (1841 (serotype D, 24 h)) is listed as over 64 mg/L. Also, under “1841 (serotype D, 48 h)”, the “MIC (after 48 h)” value was found to be 28 µM (≈ 74.2 µg/mL) and the “MIC (mg/L) 48 h, Cf-labeled peptides” value is over 64 mg/L.

With `CC[C@H](C)[C@H](NC(=O)[C@H](CCCNC(=O)c1ccc2c(c1)C(=O)OC21c2ccc(O)cc2Oc2cc(O)ccc21)N=C(N(C)C)N(C)C)C(=O)N[C@@H](CCCN)C(=O)N[C@H](C(=O)N[C@@H](CCCN)C(=O)N[C@@H](CCCNC(=N)N)C(=O)N1CCC[C@H]1C(=O)N[C@H](C(=O)N[C@@H](Cc1ccc(O)cc1)C(=O)N[C@@H](CCCN)C(=O)N1CCC[C@H]1C(=O)N[C@@H](CCCNC(=N)N)C(=O)N1CCC[C@H]1C(=O)N[C@@H](CCCNC(=N)N)C(=O)N1CCC[C@H]1C(=O)N1CCC[C@H]1C(=O)N[C@@H](Cc1c[nH]cn1)C(=O)N1CCC[C@H]1C(=O)N[C@@H](CCCNC(=N)N)C(=O)N[C@@H](CC(C)C)C(=O)O)C(C)C)[C@@H](C)CC` [Cf-Api795] (5FAM-[δOrn(α-TMG)]I[Orn]I[Orn]RPVY[Orn]PRPRPPHPRL-OH), the “activity of Cf-labeled peptide relative to the corresponding unlabeled peptide” value is listed as “slightly more active”. The “MIC (after 48 h)” value (1841 (serotype D, 48 h)) was 3.2 µM (≈ 9.21 µg/mL). The “MIC (mg/L) 24 h, Cf-labeled peptides” value under setting [1] was found to be 4 mg/L (≈ 1.39 µM). Moreover, under setting [2], the “MIC (mg/L) 48 h, Cf-labeled peptides” value was found to be 4 mg/L (≈ 1.39 µM).

For `CC[C@H](C)[C@H](NC(=O)[C@H](Cc1ccc(O)cc1)NC(=O)[C@@H](NC(=O)[C@@H]1CCCN1C(=O)[C@H](CCCNC(=N)N)NC(=O)[C@H](CC(N)=O)NC(=O)[C@H](CC(N)=O)NC(=O)CNC(=O)c1ccc2c(c1)C(=O)OC21c2ccc(O)cc2Oc2cc(O)ccc21)C(C)C)C(=O)N1CCC[C@H]1C(=O)N[C@@H](CCC(N)=O)C(=O)N1CCC[C@H]1C(=O)N[C@@H](CCCNC(=N)N)C(=O)N1CCC[C@H]1C(=O)N1CCC[C@H]1C(=O)N[C@@H](Cc1c[nH]cn1)C(=O)N1CCC[C@H]1C(=O)N[C@@H](CCCNC(=N)N)C(=O)N[C@@H](CC(C)C)C(=O)O` [Cf-Apidaecin 1b] (5FAM-GNNRPVYIPQPRPPHPRL-OH), where the note is “1841 (serotype D, 24 h)”, the “MIC (mg/L) 24 h, Cf-labeled peptides” value was over 128 mg/L. Further, for the setting “1841 (serotype D, 48 h)”, the “MIC (after 48 h)” value is over 61 µM and the “MIC (mg/L) 48 h, Cf-labeled peptides” value is recorded as over 128 mg/L.

With `CC(C)C[C@H](NC(=O)[C@H](Cc1ccc(O)cc1)NC(=O)[C@@H]1CCCN1C(=O)[C@H](CCCNC(=N)N)NC(=O)[C@@H]1CCCN1C(=O)[C@H](CCCCN)NC(=O)[C@H](CCCCN)NC(=O)[C@@H]1CCCN1C(=O)[C@H](CCCNC(=N)N)NC(=O)C1(NC(=O)c2ccc3c(c2)C(=O)OC32c3ccc(O)cc3Oc3cc(O)ccc32)CCCCC1)C(=O)N1CCC[C@H]1C(=O)N[C@@H](CCCNC(=N)N)C(=O)N1CCC[C@H]1C(=O)N[C@@H](CCCNC(=N)N)C(=O)N1CCC[C@H]1C(=O)N1CCC[C@H]1C(=O)N[C@@H](CCCNC(=N)N)C(=O)N1CCC[C@H]1C(=O)N[C@H](C(=O)N[C@@H](CCCNC(=N)N)C(N)=O)C(C)C` [Cf-Chex1Arg20 D4K] (5FAM-[Ac6c]RPKKPRPYLPRPRPPRPVR-NH2), the “activity of Cf-labeled peptide relative to the corresponding unlabeled peptide” value is on record as “slightly less active”. For the same compound, the “MIC (after 48 h)” value (1841 (serotype D, 48 h)) was 1.6 µM (≈ 4.55 µg/mL). Moreover, the “MIC (mg/L) 24 h, Cf-labeled peptides” value under setting [1] is 8 mg/L (≈ 2.81 µM). Moreover, under setting [2], the “MIC (mg/L) 48 h, Cf-labeled peptides” value is listed as 8 mg/L (≈ 2.81 µM).

As to `CC(C)C[C@H](NC(=O)[C@H](Cc1ccc(O)cc1)NC(=O)[C@@H]1CCCN1C(=O)[C@H](CCCNC(=N)N)NC(=O)[C@@H]1CCCN1C(=O)[C@H](CCCCN)NC(=O)[C@H](CC(=O)O)NC(=O)[C@@H]1CCCN1C(=O)[C@H](CCCNC(=N)N)NC(=O)C1(NC(=O)c2ccc3c(c2)C(=O)OC32c3ccc(O)cc3Oc3cc(O)ccc32)CCCCC1)C(=O)N1CCC[C@H]1C(=O)N[C@@H](CCCNC(=N)N)C(=O)N1CCC[C@H]1C(=O)N[C@@H](CCCNC(=N)N)C(=O)N1CCC[C@H]1C(=O)N1CCC[C@H]1C(=O)N[C@@H](CCCNC(=N)N)C(=O)N1CCC[C@H]1C(=O)N[C@H](C(=O)N[C@@H](CCCNC(=N)N)C(N)=O)C(C)C` [Cf-Chex1Arg20] (5FAM-[Ac6c]RPDKPRPYLPRPRPPRPVR-NH2), the “activity of Cf-labeled peptide relative to the corresponding unlabeled peptide” value is given as “slightly more active”. Further, where the note is “1841 (serotype D, 48 h)”, the “MIC (after 48 h)” value turned out to be 3.2 µM (≈ 9.07 µg/mL). The “MIC (mg/L) 24 h, Cf-labeled peptides” value under setting [1] worked out at 4 mg/L (≈ 1.41 µM). For the same compound, under setting [2], the “MIC (mg/L) 48 h, Cf-labeled peptides” value is 4 mg/L (≈ 1.41 µM).

Consider `CC[C@H](C)[C@H](NC(=O)[C@@H](CCCNC(=N)N)NC(=O)[C@H](CCCNC(=N)N)NC(=O)[C@@H]1CCCN1C(=O)[C@@H]1CCCN1C(=O)[C@H](CCCNC(=N)N)NC(=O)[C@@H]1CCCN1C(=O)[C@H](CCCNC(=N)N)NC(=O)[C@@H]1CCCN1C(=O)[C@H](CC(C)C)NC(=O)[C@H](Cc1ccc(O)cc1)NC(=O)[C@@H]1CCCN1C(=O)[C@@H]1CCCN1C(=O)[C@H](CCCCN)NC(=O)[C@H](CC(=O)O)NC(=O)[C@@H](NC(=O)c1ccc2c(c1)C(=O)OC21c2ccc(O)cc2Oc2cc(O)ccc21)C(C)C)C(=O)N[C@@H](Cc1ccc(O)cc1)C(=O)N[C@@H](CC(N)=O)C(=O)N[C@H](CCCNC(=N)N)C(N)=O` [Cf-Onc112] (5FAM-VDKPPYLPRPRPPR[dR]IYN[dR]-NH2), for which the “activity of Cf-labeled peptide relative to the corresponding unlabeled peptide” value is “slightly more active”. Also, the “MIC (mg/L) 24 h, Cf-labeled peptides” value (1841 (serotype D, 24 h)) lay in the range of 4 to 8 mg/L. For the same compound, under “1841 (serotype D, 48 h)”, the “MIC (after 48 h)” value worked out at 6.7 µM (≈ 18.4 µg/mL) and the “MIC (mg/L) 48 h, Cf-labeled peptides” value was in the range of 4 to 8 mg/L.
